In this assay the test system is HBV. As to the kind of experiment: HBV inhibition assay in HepAD38 cells (extracellular HBV DNA by direct qPCR). In kind it is cell-based, Hepatitis B virus. The settings on record: Hepatitis B virus, 96 hours; for inhibition at 0.05 µM / inhibition at 0.1 µM: relative to non-treated reference, read-out: Anti HBV Activity (conc μM); for EC50: 8-point dose-response curve, read-out: HBV inh EC50.

Take `Cc1cc(C(=O)N2CC3COc4c(cn(C)c4C(=O)Nc4ccc(F)c(C)c4)S(=O)(=O)NC3C2)no1` (stereo not drawn) [Example E52, cis-N-(4-fluoro-3-methylphenyl)-7-methyl-2-(5-methylisoxazole-3-carbonyl)-2,3,3a,4,10,10a-hexahydro-1H,7H-dipyrrolo[3,4-b:3′,4′-f][1,4,5]oxathiazocine-8-carboxamide 5,5-dioxide]: the inhibition at 0.05 µM was greater than 50% and the EC50 was less than 1 µM.
For the compound `Cc1cc(NC(=O)c2c3c(cn2C)S(=O)(=O)NC2CN(C(=O)c4ccc(O)nc4)CC2CO3)ccc1F` (stereo not drawn) [Example E53, cis-N-(4-fluoro-3-methylphenyl)-2-(6-hydroxynicotinoyl)-7-methyl-2,3,3a,4,10,10a-hexahydro-1H,7H-dipyrrolo[3,4-b:3′,4′-f][1,4,5]oxathiazocine-8-carboxamide 5,5-dioxide], the inhibition at 0.1 µM is less than 50%.
Consider `Cc1cc(NC(=O)c2c3c(cn2C)S(=O)(=O)NC2CN(C(=O)c4cccnc4)CC2CO3)ccc1F` (stereo not drawn) [Example E54, cis-N-(4-fluoro-3-methylphenyl)-7-methyl-2-nicotinoyl-2,3,3a,4,10,10a-hexahydro-1H,7H-dipyrrolo[3,4-b:3′,4′-f][1,4,5]oxathiazocine-8-carboxamide 5,5-dioxide], for which the inhibition at 0.1 µM is greater than 50%.
As for `Cn1cc2c(c1C(=O)Nc1cc(F)c(F)c(F)c1)OCC1CN(C(=O)c3c[nH]c(=O)cn3)CC1NS2(=O)=O` (stereo not drawn) [Example E56, cis-7-methyl-2-(5-oxo-4,5-dihydropyrazine-2-carbonyl)-N-(3,4,5-trifluorophenyl)-2,3,3a,4,10,10a-hexahydro-1H,7H-dipyrrolo[3,4-b:3′,4′-f][1,4,5]oxathiazocine-8-carboxamide 5,5-dioxide], the inhibition at 0.1 µM was less than 50%.
Still for that read-out and setting: the value for `Cn1cc(C(=O)N2CC3COc4c(cn(C)c4C(=O)Nc4cc(F)c(F)c(F)c4)S(=O)(=O)NC3C2)cn1` (stereo not drawn) [Example E57, cis-7-methyl-2-(1-methyl-1H-pyrazole-4-carbonyl)-N-(3,4,5-trifluorophenyl)-2,3,3a,4,10,10a-hexahydro-1H,7H-dipyrrolo[3,4-b:3′,4′-f][1,4,5]oxathiazocine-8-carboxamide 5,5-dioxide] was less than 50%.
Turning to `Cn1cc2c(c1C(=O)Nc1cc(F)c(F)c(F)c1)OCC1CN(C(=O)c3nccs3)CC1NS2(=O)=O` (stereo not drawn) [Example E58, cis-7-methyl-2-(thiazole-2-carbonyl)-N-(3,4,5-trifluorophenyl)-2,3,3a,4,10,10a-hexahydro-1H,7H-dipyrrolo[3,4-b:3′,4′-f][1,4,5]oxathiazocine-8-carboxamide 5,5-dioxide], the inhibition at 0.05 µM was greater than 50% and the EC50 was less than 1 µM.
For `Cn1cc2c(c1C(=O)Nc1cc(F)c(F)c(F)c1)OCC1CN(c3nccc(=O)[nH]3)CC1NS2(=O)=O` (stereo not drawn) [Example E59, cis-7-methyl-2-(6-oxo-1,6-dihydropyrimidin-2-yl)-N-(3,4,5-trifluorophenyl)-2,3,3a,4,10,10a-hexahydro-1H,7H-dipyrrolo[3,4-b:3′,4′-f][1,4,5]oxathiazocine-8-carboxamide 5,5-dioxide], the EC50 is greater than 1 µM.
As for `Cn1cc2c(c1C(=O)Nc1cc(F)c(F)c(F)c1)OCC1CN(C(=O)c3nonc3N)CC1NS2(=O)=O` (stereo not drawn) [Example E60, cis-2-(4-amino-1,2,5-oxadiazole-3-carbonyl)-7-methyl-N-(3,4,5-trifluorophenyl)-2,3,3a,4,10,10a-hexahydro-1H,7H-dipyrrolo[3,4-b:3′,4′-f][1,4,5]oxathiazocine-8-carboxamide 5,5-dioxide], the EC50 was less than 1 µM.
Same read-out and setting: in the case of `Cc1cc(NC(=O)c2c3c(cn2C)S(=O)(=O)NC2CN(C(=O)c4nonc4N)CC2CO3)ccc1F` (stereo not drawn) [Example E61, cis-2-(4-amino-1,2,5-oxadiazole-3-carbonyl)-N-(4-fluoro-3-methylphenyl)-7-methyl-2,3,3a,4,10,10a-hexahydro-1H,7H-dipyrrolo[3,4-b:3′,4′-f][1,4,5]oxathiazocine-8-carboxamide 5,5-dioxide] it was less than 1 µM.
Still for that read-out and setting: in the case of `Cc1cc(NC(=O)c2c3c(cn2C)S(=O)(=O)NC2CN(C(=O)c4ncon4)CC2CO3)ccc1F` (stereo not drawn) [Example E63, cis-N-(4-fluoro-3-methylphenyl)-7-methyl-2-(1,2,4-oxadiazole-3-carbonyl)-2,3,3a,4,10,10a-hexahydro-1H,7H-dipyrrolo[3,4-b:3′,4′-f][1,4,5]oxathiazocine-8-carboxamide 5,5-dioxide] it was less than 1 µM; in that of `Cn1cc2c(c1C(=O)Nc1cc(F)c(F)c(F)c1)OCC1CN(C(=O)c3cnco3)CC1NS2(=O)=O` (stereo not drawn) [Example E64, cis-7-methyl-2-(oxazole-5-carbonyl)-N-(3,4,5-trifluorophenyl)-2,3,3a,4,10,10a-hexahydro-1H,7H-dipyrrolo[3,4-b:3′,4′-f][1,4,5]oxathiazocine-8-carboxamide 5,5-dioxide], less than 1 µM.
Same read-out and setting: the value for `Cn1cc2c(c1C(=O)Nc1cc(F)c(F)c(F)c1)OCC1CN(C(=O)c3cocn3)CC1NS2(=O)=O` (stereo not drawn) [Example E65, cis-7-methyl-2-(oxazole-4-carbonyl)-N-(3,4,5-trifluorophenyl)-2,3,3a,4,10,10a-hexahydro-1H,7H-dipyrrolo[3,4-b:3′,4′-f][1,4,5]oxathiazocine-8-carboxamide 5,5-dioxide] was less than 1 µM.
Take `Cc1cc(NC(=O)c2c3c(cn2C)S(=O)(=O)NC2CN(C(=O)C4(C)COC4)CC2CO3)ccc1F` (stereo not drawn) [Example E66, cis-N-(4-fluoro-3-methylphenyl)-7-methyl-2-(3-methyloxetane-3-carbonyl)-2,3,3a,4,10,10a-hexahydro-1H,7H-dipyrrolo[3,4-b:3′,4′-f][1,4,5]oxathiazocine-8-carboxamide 5,5-dioxide]: the EC50 was less than 1 µM.
`CC(=O)OCC(=O)N1CC2COc3c(cn(C)c3C(=O)Nc3cc(F)c(F)c(F)c3)S(=O)(=O)NC2C1` (stereo not drawn) [Example E70, cis-2-(7-methyl-5,5-dioxido-8-((3,4,5-trifluorophenyl)carbamoyl)-3a,4,10,10a-tetrahydro-1H,7H-dipyrrolo[3,4-b:3′,4′-f][1,4,5]oxathiazocin-2(3H)-yl)-2-oxoethyl acetate]: the inhibition at 0.1 µM is less than 50%.
The same measure, in the same setting: in the case of `Cn1cc2c(c1C(=O)Nc1cc(F)c(F)c(F)c1)OCC1CN(C(=O)CO)CC1NS2(=O)=O` (stereo not drawn) [Example E71, cis-2-(2-hydroxyacetyl)-7-methyl-N-(3,4,5-trifluorophenyl)-2,3,3a,4,10,10a-hexahydro-1H,7H-dipyrrolo[3,4-b:3′,4′-f][1,4,5]oxathiazocine-8-carboxamide 5,5-dioxide] it was less than 50%; in that of `Cn1cc2c(c1C(=O)Nc1cc(F)c(F)c(F)c1)OCC1CN(CC(F)(F)F)CC1NS2(=O)=O` (stereo not drawn) [Example E73, cis-7-methyl-2-(2,2,2-trifluoroethyl)-N-(3,4,5-trifluorophenyl)-2,3,3a,4,10,10a-hexahydro-1H,7H-dipyrrolo[3,4-b:3′,4′-f][1,4,5]oxathiazocine-8-carboxamide 5,5-dioxide], greater than 50%.
`Cn1cc2c(c1C(=O)Nc1cc(F)c(F)c(F)c1)OCC1CN(CC#N)CC1NS2(=O)=O` (stereo not drawn) [Example E74, cis-2-(cyanomethyl)-7-methyl-N-(3,4,5-trifluorophenyl)-2,3,3a,4,10,10a-hexahydro-1H,7H-dipyrrolo[3,4-b:3′,4′-f][1,4,5]oxathiazocine-8-carboxamide 5,5-dioxide]: the inhibition at 0.05 µM is greater than 50% and the EC50 is less than 1 µM.
As for `Cn1cc2c(c1C(=O)Nc1cc(F)c(F)c(F)c1)OCC1CN(c3ncc(F)cn3)CC1NS2(=O)=O` (stereo not drawn) [Example E75, cis-2-(5-fluoropyrimidin-2-yl)-7-methyl-N-(3,4,5-trifluorophenyl)-2,3,3a,4,10,10a-hexahydro-1H,7H-dipyrrolo[3,4-b:3′,4′-f][1,4,5]oxathiazocine-8-carboxamide 5,5-dioxide], the inhibition at 0.05 µM is greater than 50% and the EC50 is less than 1 µM.
Consider `Cc1cc(NC(=O)c2c3c(cn2C)S(=O)(=O)NC2CN(c4ccnc(Cl)c4)CC2CO3)ccc1F` (stereo not drawn) [Example E76, cis-2-(2-chloropyridin-4-yl)-N-(4-fluoro-3-methylphenyl)-7-methyl-2,3,3a,4,10,10a-hexahydro-1H,7H-dipyrrolo[3,4-b:3′,4′-f][1,4,5]oxathiazocine-8-carboxamide 5,5-dioxide], for which the inhibition at 0.05 µM was greater than 50% and the EC50 is less than 1 µM.
Take `CCOC(=O)N1C[C@H]2C[C@@H]1COc1c(cn(C)c1C(=O)Nc1cc(F)c(F)c(F)c1)S(=O)(=O)N2` [Example E77, Ethyl (3R,6R)-10-methyl-9-((3,4,5-trifluorophenyl)carbamoyl)-3,4,6,7-tetrahydro-10H-3,6-methanopyrrolo[3,4-b][1,4,5,8]oxathiadiazecine-5(2H)-carboxylate 1,1-dioxide]: the EC50 is less than 1 µM.
In the case of `Cc1nnc(N2CC3COc4c(cn(C)c4C(=O)Nc4cc(F)c(F)c(F)c4)S(=O)(=O)NC3C2)o1` (stereo not drawn) [Example E78, cis-7-methyl-2-(5-methyl-1,3,4-oxadiazol-2-yl)-N-(3,4,5-trifluorophenyl)-2,3,3a,4,10,10a-hexahydro-1H,7H-dipyrrolo[3,4-b:3′,4′-f][1,4,5]oxathiazocine-8-carboxamide 5,5-dioxide], the inhibition at 0.05 µM is greater than 50% and the EC50 was less than 1 µM.
As to `Cc1cc(NC(=O)c2c3c(cn2C)S(=O)(=O)NC2CN(CC(F)(F)F)CC2CO3)ccc1F` (stereo not drawn) [Example E80, cis-N-(4-fluoro-3-methylphenyl)-7-methyl-2-(2,2,2-trifluoroethyl)-2,3,3a,4,10,10a-hexahydro-1H,7H-dipyrrolo[3,4-b:3′,4′-f][1,4,5]oxathiazocine-8-carboxamide 5,5-dioxide], the inhibition at 0.1 µM is greater than 50%.
For the compound `Cn1cc2c(c1C(=O)Nc1cc(F)c(F)c(F)c1)OCC1CN(c3ccccn3)CC1NS2(=O)=O` (stereo not drawn) [Example E81, cis-7-methyl-2-(pyridin-2-yl)-N-(3,4,5-trifluorophenyl)-2,3,3a,4,10,10a-hexahydro-1H,7H-dipyrrolo[3,4-b:3′,4′-f][1,4,5]oxathiazocine-8-carboxamide 5,5-dioxide], the inhibition at 0.1 µM is greater than 50%.
